Values after ≈ are worked out from the molar mass of the structure shown.
Experiments:
[1] = test system: Methicillin-resistant Staphylococcus aureus (MRSA) strain USA300; experiment: Minimal Inhibitory Concentration (MIC) of TDA against MRSA; format: cell-based
Text: Against Methicillin-resistant Staphylococcus aureus (MRSA) strain USA300

Vibrio anguillarium = experiment: Minimal Inhibitory Concentration (MIC) of TDA against Vibrio anguillarium; format: cell-based; conditions: FIG. 12
Text: FIG. 12 is a graph showing the efficacy of TDA against Vibrio anguillarum, as described in Example 10.

V. anguillarium [2] = experiment: Swimming (motility) of V. anguillarium exposed to TDA; format: cell-based, Vibrio anguillarium; conditions: exposed to 5 ug TDA per ml (ca. 3x MIC)
Text: It is unlikely that the mechanism of action of TDS involves inhibition of protein, DNA or RNA synthesis, transcription, or translation, all of which would require more time to inhibit.

V. anguillarium [3] = experiment: Regrowth of V. anguillarium in fresh nutrient broth after TDA exposure (bactericidal test); format: cell-based, Vibrio anguillarium; conditions: 5 ug per ml (3x MIC) for 90 minutes, FIG. 13
Experimental: FIG. 13 is a graph showing the bactericidal character of TDA against Vibrio anguillarum, illustrating the results using control (squares; buffer only), control 0.001 (circles), TDA (triangles), and TDA 0.001 (inverted triangles), as described in Example 10. V. anguillarium was exposed to 5 ug TDS per ml (3× MIC) for 90 minutes, after which the cells were washed and suspended in fresh nutrient broth. […] The results, as set forth in the graph of FIG. 13 indicate that the activity of TDA is bactericidal for this bacterial species, not simply bacteristatic.

[4] = test system: Mycobacterium tuberculosis strain H37Rv; experiment: Minimal Inhibitory Concentration (MIC) of TDA against Mycobacterium tuberculosis; format: cell-based
Text: Against Mycobacterium tuberculosis strain H37Rv

O=C(O)c1c(=O)cccc2ssc12 [TDA, tropodithietic acid]
MIC [1]: 40 µg/mL (≈ 188 µM)
Result in words: killing of MRSA [1]: kills
MIC (Vibrio anguillarium): 1.5 µg/mL (≈ 7.07 µM)
Result in words: killing of V. anguillarium (Vibrio anguillarium): kills
Time until V. anguillarium stopped swimming (V. anguillarium [2]): ≤ 70 s
Character of activity (bactericidal vs bacteristatic) (V. anguillarium [3]): bactericidal
Growth of exposed cells after washing and suspension in fresh nutrient broth (V. anguillarium [3]; control cells exposed to buffer grew normally): failed to grow
Result in words: killing of M. tuberculosis [4]: kills
MIC ([4]; M. tuberculosis strain H37Rv): 7.8 µg/mL (≈ 36.7 µM)

Reference: patent US8058417B2, “Biosynthetic pathway and genes required for tropodithietic acid biosynthesis in silicibacter TM1040” (priority 2006, dated 2011)
